# According to patent US8198287B2, “Substituted heteroaryl pyridopyrimidone derivatives” (Sanofi-Aventis, priority 2006, dated 2012):
# Target: GSK3β (Homo sapiens, UniProt P49841)
# Assay: Inhibitory activity against GSK3β (33P-ATP phosphorylation of prephosphorylated GS1 peptide; two alternative protocols)
# Type: biochemical
# Details: first or second protocol, not specified per compound
# Experimental: Inhibitory Activity of the Medicament of the Present Invention Against GSK3β
# Two different protocols can be used.
# In a first protocol: 7.5 μM of prephosphorylated GS1 peptide and 10 μM ATP (containing 300,000 cpm of ^33P-ATP) were incubated in 25 mM Tris-HCl, pH 7.5, 0.6 mM DTT, 6 mM MgCl2, 0.6 mM EGTA, 0.05 mg/ml BSA buffer for 1 hour at room temperature in the presence of GSK3beta (total reaction volume: 100 microliters).
# In a second protocol: 4.1 μM of prephosphorylated GS1 peptide and 42 μM ATP (containing 260,000 cpm ^33P-ATP) were incubated in 80 mM Mes-NaOH, pH 6.5, 1 mM Mg acetate, 0.5 mM EGTA, 5 mM 2-mercaptoethanol, 0.02% Tween 20, 10% glycerol buffer for 2 hours at room temperature in the presence of GSK3beta.
# Inhibitors were solubilized in DMSO (final solvent concentration in the reaction medium, 1%).
# The reaction was stopped with 100 microliters of a solution made of 25 g polyphosphoric acid (85% P2O5), 126 ml 85% H3PO4, H2O to 500 ml and then diluted to 1:100 before use. An aliquot of the reaction mixture was then transferred to Whatman P81 cation exchange filters and rinsed with the solution described above. Incorporated ^33P radioactivity was determined by liquid scintillation spectrometry.
# The phosphorylated GS-1 peptide had the following sequence:
# NH2—[…](P)EDEE-COOH. (Woodgett, J. R. (1989) Analytical Biochemistry 180, 237-241.
# Sequence of GSK3β (P49841 whole entry): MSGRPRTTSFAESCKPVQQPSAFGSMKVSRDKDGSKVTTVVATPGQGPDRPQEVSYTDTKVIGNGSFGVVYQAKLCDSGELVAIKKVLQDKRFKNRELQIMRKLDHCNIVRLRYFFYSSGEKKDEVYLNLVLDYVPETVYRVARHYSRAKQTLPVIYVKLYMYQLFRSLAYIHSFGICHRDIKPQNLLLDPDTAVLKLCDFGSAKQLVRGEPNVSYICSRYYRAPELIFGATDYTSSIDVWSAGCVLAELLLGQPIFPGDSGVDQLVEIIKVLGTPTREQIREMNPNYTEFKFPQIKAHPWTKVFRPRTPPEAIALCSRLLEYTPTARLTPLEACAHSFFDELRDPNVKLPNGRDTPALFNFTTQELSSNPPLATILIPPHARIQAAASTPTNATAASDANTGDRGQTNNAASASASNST
row,IC50,Structure (SMILES)
1,14 nM,"Nc1c(Cl)cc(C(=O)NC2CCCn3c2nc(-c2ccncc2)cc3=O)c2c1OCCO2 (racemic) [13 of table 1, (+/−)8-Amino-7-chloro-2,3-dihydro-benzo[1,4]dioxine-5-carboxylic acid (4-oxo-2-pyridin-4-yl-6,7,8,9-tetrahydro-4H-pyrido[1,2-a]pyrimidin-9-yl)-amide]"
2,4 nM,"CSc1ncc(Cl)c(C(=O)NC2CCn3c2nc(-c2ccncn2)cc3=O)n1 (racemic) [14 of table 2, (+/−)5-Chloro-2-methylsulfanyl-pyrimidine-4-carboxylic acid (4-oxo-2-pyrimidin-4-yl-4,6,7,8-tetrahydro-pyrrolo[1,2-a]pyrimidin-8-yl) -amide]"
3,5 nM,"O=C(NC1CCCCn2c1nc(-c1ccncn1)cc2=O)c1cccc(Cl)n1 (racemic) [53 of table 3, (+/−)6-Chloro-pyridine-2-carboxylic acid (4-oxo-2-pyrimidin-4-yl-4,6,7,8,9,10-hexahydro-pyrimido[1,2-a]azepin-10-yl)-amide]"
